The values below come from patent publication US11572344B2, “Cyanoaryl-aniline compounds for treatment of dermal disorders” (NFlection Therapeutics, Inc., priority 2018, dated 2023).

The structures appear in SMILES notation.

One data set concerns the target MEK1 (Homo sapiens (Human), UniProt Q02750). In words: MEK Inhibition Assay-1 (33P-ATP, P81 filter-binding). Conditions: assay of Example 38; read-out: Assay 1: biochemical MEK IC50. On the procedure:
The following procedure can be used to measure biochemical activity. MEK1 inhibitory activity of compounds were tested using the following procedure. […] Nat Biotechnol. 2011, 29(11), 1039-45.
• Reaction buffer: 20 mM Hepes (pH 7.5), 10 mM MgCl2, 1 mM EGTA, 0.02% Brij35, 0.02 mg/mL BSA, 0.1 mM Na3VO4, 2 mM DTT, 1% DMSO • Enzyme: MEK1, Invitrogen cat #PV3303 • N-terminal His-tagged recombinant human full length protein, expressed in insect cells. Activated in vitro by RAF1. MW=49.2 kDa, GenBank Accession No. NP_002746. • Substrate: 5 μM ERK2 (K52R), • Kinase-dead mutant, (GenBank Accession No. NM_0011949), aa2-358 with N-terminal His6 tag, MW=43.63 kDa, expressed in E. coli.
The substrate was prepared in freshly prepared Reaction Buffer. The kinase was delivered into the substrate solution and gently mixed. Test compounds were delivered in 100% DMSO into the kinase reaction mixture by Acoustic technology (Echo550; nanolitter range), and incubated for 20 min at room temperature. ^33P-ATP was delivered into the reaction mixture to initiate the reaction. The reaction mixture was incubated for 2 hours at room temperature. Kinase activity was detected by P81 filter-binding method.
Assay 1 is the biochemical MEK IC50 (nM) assay as described in Example 38.

A further data set relates to A375 cells. Briefly: A375 (BRAF) GI50 cell-based assay (Cell Titer-Glo). To be noted: Homo sapiens, A-375, 72 hours, read-out: Assay 2: A375 (BRAF) GI50. How it is done: (§1) Alternatively, the following procedure can be used to measure cell-based activity. Test compounds were dissolved in DMSO in 10 mM stock. Cell Titer-Glo® 2.0 Luminescent cell viability assay reagent was purchased from Promega (Madison, Wis.). A375 and HCT116 cell lines were purchased from American Type Culture Collection (Manassas, Va.). For A375 cells, cell culture media was DMEM+10% FBS. For HCT116 cells, cell culture media was McCoy's 5A+10% FBS. All media were supplemented with 100 μg/mL of penicillin, and 100 μg/mL of streptomycin. Cultures were maintained at 37° C. in a humidified atmosphere of 5% CO2 and 95% air.
(§2) Test compounds were diluted in DMSO solution with 10-dose and 3-fold dilutions in a source plate starting at 10 mM. 25 nL of each test compound was delivered from the source plate to each well of the 384-well cell culture plates (T=Final) by Echo 550. 25 μL of culture medium containing 2000 of A375 or HCT116 cells was added to each of the wells in duplicates of the cell culture plates (T=0 and T=Final). 25 μL of Cell Titer Glo 2.0 reagent was added to each well of cell culture plate (T=0). The contents were mixed on an orbital shaker for 2 min and incubated at room temperature for 15 min to stabilize luminescent signal. Luminescence was recorded by Envision 2104 Multilabel Reader (PerkinElmer, Santa Clara, Calif.). The number of viable cells in culture was determined based on quantitation of the ATP present in each culture well. The cells in cell culture plate (T=Final) were incubated with the compounds at 37° C., 5% CO2 for 72 hours. 25 μL of Cell Titer Glo 2.0 reagent was added to each well. The contents were mixed on an orbital shaker for 2 min and incubated at room temperature for 15 min to stabilize luminescent signal. Luminescence was recorded by Envision 2104 Multilabel Reader (PerkinElmer, Santa Clara, Calif.). The number of viable cells in culture was determined based on quantitation of the ATP present in each culture well. The GI50 curves were plotted using the GraphPad Prism 4 program based on a sigmoidal dose-response equation Y=Bottom+(Top-Bottom)/(1+10^((Log EC50−X)*HillSlope)). All parameters in the equation were calculated by GraphPad Prism 4 program. […] Accordingly, GI50 is the value of 10^X, where X was calculated by the Curve Fitting Equation when Y=50 using Excel.
Assay 2 is the A375 (BRAF) GI50 (nM) cell-based assay as described in Example 41.
(In general: ATP-based viability assays read luminescence as a measure of living cells.)

For another data set, the system named is HCT116 cells. In words: HCT116 (Kras) GI50 cell-based assay (Cell Titer-Glo). Conditions: Homo sapiens, HCT-116, 72 hours, read-out: Assay 3: HCT116 (Kras) GI50. On the procedure:
as §1, §2
Assay 3 is the HCT116 (Kras) GI50 (nM) assay as described in Example 41.

Data set [1] is described as follows: Liver S9 half-life stability assay. It is filed as in vitro ADME. Conditions: human, liver S9 fraction, pH 7.4; 1 μM test compound, 2 mg/mL liver protein, 1 mM NADPH; read-out: Assay 4: liver S9 half-life. How it is done:
Compounds can be assessed for metabolic stability in human skin by assessing their rate of disappearance from human S9 skin fraction. Similarly, compounds can be assessed for metabolic stability in human liver by assessing their rate of disappearance from human S9 liver fraction. The protocol below is used to assess the difference between skin and hepatic metabolism.
The assay was carried out in 96-well microtiter plates at 37° C. Reaction mixtures (25 μL) contained a final concentration of 1 μM test compound, 2 mg/mL liver or skin protein, and 1 mM NADPH in buffer (100 mM potassium phosphate, pH 7.4 buffer with 1 mM EDTA, 3 mM MgCl2). At each of the time points (0, 15, 30, and 60 minutes), 150 μL of quench solution (100% acetonitrile with 0.1% formic acid) with internal standard was transferred to each well. Besides the zero minute controls, mixtures containing the same components except the NADPH were also prepared as the negative control. Verapamil or testosterone was included as a positive control to verify assay performance. Plates were sealed and centrifuged at 4° C. for 15 minutes at 4000 rpm. The supernatant was transferred to fresh plates for LC/MS/MS analysis.
All samples were analyzed on LC/MS/MS using an AB Sciex API 4000 instrument, coupled to a Shimadzu LC-20AD LC Pump system. Analytical samples were separated using a Waters Atlantis T3 dC18 reverse phase HPLC column (20 mm×2.1 mm) at a flow rate of 0.5 mL/min. The mobile phase consisted of 0.1% formic acid in water (solvent A) and 0.1% formic acid in 100% acetonitrile (solvent B).
The extent of metabolism was calculated as the disappearance of the test compound, compared to the 0-min control reaction incubations. Initial rates were calculated for the compound concentration and used to determine t1/2 values and subsequently, the intrinsic clearance, CLint=(0.693) (1/t1/2 (min)) (mL incubation/mg of S9 protein).
Assay 4 is the liver S9 half-life stability assay as described in Example 42. A4 indicates a half life of greater than 50 min and less than or equal to 200 min and B4 indicates a half life of less than or equal to 50 minutes.

Sequence of MEK1 (Q02750 whole entry): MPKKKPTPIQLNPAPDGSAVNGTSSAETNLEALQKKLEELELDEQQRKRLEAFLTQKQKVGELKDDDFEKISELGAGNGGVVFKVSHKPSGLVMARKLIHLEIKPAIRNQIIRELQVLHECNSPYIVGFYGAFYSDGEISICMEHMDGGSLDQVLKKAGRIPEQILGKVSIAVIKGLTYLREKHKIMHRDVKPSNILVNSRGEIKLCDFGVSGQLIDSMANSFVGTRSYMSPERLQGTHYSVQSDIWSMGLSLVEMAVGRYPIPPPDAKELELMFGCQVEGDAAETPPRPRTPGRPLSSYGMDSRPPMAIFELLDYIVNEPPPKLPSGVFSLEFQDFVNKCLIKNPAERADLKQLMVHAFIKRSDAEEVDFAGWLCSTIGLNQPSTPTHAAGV

In the case of `N#Cc1ccc(C(=O)NOCC2CC2)c(Nc2ccc(I)cc2F)c1F` [Compound 1.031], on MEK1, the IC50 (commonly the concentration that inhibits the measured activity by half) was at most 150 nM. The results for the GI50 with A375 cells and in the data set with HCT116 cells were at most 500 nM and 750 to 2000 nM, respectively. The half-life (in general, the time needed for the level to fall by half in the phase considered) at 1 μM in data set [1] is at most 50 min.

Regarding `N#Cc1ccc(C(=O)NOCCO)c(Nc2ccc(I)cc2F)c1` [Compound 1.010], the IC50 on MEK1 is at most 150 nM. Also, the results for the concentration for 50% growth inhibition (GI50) in the data set with A375 cells and in the data set with HCT116 cells were at most 500 nM and at most 750 nM, respectively. The half-life at 1 μM in data set [1] was in the range of 50 to 200 min.

`N#Cc1ccc(C(=O)NOCCO)c(Nc2ccc(I)cc2F)c1F` [Compound 1.030, 4-cyano-3-fluoro-2-((2-fluoro-4-iodophenyl)amino)-N-(2-hydroxyethoxy) benzamide]: the IC50 on MEK1 is at most 150 nM. Besides, the 50% growth inhibitory concentration (GI50) – broadly, the concentration that inhibits growth by half – with A375 cells was at most 500 nM; with HCT116 cells, at most 750 nM. Further, the half-life at 1 μM in data set [1] was in the range of 50 to 200 min.
